Measurements reported in patent US12448364B2, “2, 4-diaminopyrimidine derivative and application thereof” (Shanghai Zheye Biotechnology Co., Ltd., priority 2018, dated 2025).
Where two headings read alike, the source gives them in different places. One block for each molecule: values may come before it.

What was measured:
[1] = molecular target: ALK2 kinase (Homo sapiens (Human), UniProt Q04771); assay: Inhibitory activity test of the compounds on ALK2 (Promega ALK2 Kinase Enzyme System, ADP-Glo); format: biochemical; conditions: ADP-Glo chemiluminescence, 65 μM ATP substrate mix; read-out: IC50 (nM) values of the inhibitory activities on ALK2
ALK2 kinase, sequence (Q04771 21-509): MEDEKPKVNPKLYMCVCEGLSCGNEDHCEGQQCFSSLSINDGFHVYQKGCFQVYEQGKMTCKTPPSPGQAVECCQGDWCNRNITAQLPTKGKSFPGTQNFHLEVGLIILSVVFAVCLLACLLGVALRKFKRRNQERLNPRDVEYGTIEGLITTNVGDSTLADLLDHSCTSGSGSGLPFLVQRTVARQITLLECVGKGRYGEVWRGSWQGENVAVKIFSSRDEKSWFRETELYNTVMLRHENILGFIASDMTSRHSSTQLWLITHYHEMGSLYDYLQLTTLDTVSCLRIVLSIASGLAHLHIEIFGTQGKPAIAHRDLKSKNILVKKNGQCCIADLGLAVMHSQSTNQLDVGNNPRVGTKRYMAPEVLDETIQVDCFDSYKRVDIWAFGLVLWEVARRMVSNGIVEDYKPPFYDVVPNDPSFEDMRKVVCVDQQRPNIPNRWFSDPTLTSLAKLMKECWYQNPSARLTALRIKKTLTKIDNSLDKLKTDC
Description: 1. Inhibitory Activity Test of the Compounds on ALK2
ALK2 Kinase Enzyme System kit from Promega was used for the test. Reagents for kinase test was prepared first, the reagents comprising: (1)4×Kinase buffer 250 μL (containing 200 μM DTT); (2)5×Inhibitor mother liquor, i.e., the test compound was prepared into 10 mM mother liquor with DMSO, and the test compound was diluted into 5 mM (20 μL of 10 mM test compound mother liquor+20 μL of DMSO dissolved) with DMSO; (3)1×Kinase buffer (containing 1% DMSO) 200 μL; (4)1×Kinase buffer 40 μL; @Kinase solution 115 μL; (6)Substrate Mix (containing 65 μM ATP) 120 μL. The inhibitor working solution was then prepared, i.e., the test compound was prepared into 5 mM mother liquor with DMSO, 1 μL of 5 mM mother liquor was taken and was diluted into the concentration of 50000 nM by adding 99 μL 1×Kinase buffer; 20 μL of the solution of this concentration was taken, and 80 μL of 1×Kinase buffer (containing 1% DMSO) was added thereto to obtain the concentration of 10000 nM, 5 times dilution was carried out in this way, and a total of 6 concentration gradients were provided. 1 μL of the compound at each concentration was taken and added to a 384-well plate, and then 2 μL Kinase solution (160 mM Tris, 7.5; 80 mM MgCl2; 0.4 mg/ml BSA; 200 μM DTT; ALK2 kinase) was added to each well, and the plate was centrifuged at 1000 rpm for 20 seconds at room temperature, incubated for 30 minutes at 25° C.; then 2 μL of a mixture containing ATP and kinase substrate was added to each well, the plate was centrifuged at 1000 rpm for 20 seconds at room temperature, and incubated at 25° C. for 120 minutes. Then 5 μL of ADP-Glo™ reagent was added to each well, and the plate was incubated at 25° C. for 40 minutes; then 10 μL of Kinase Detection Reagent was added to each well, the plate was incubated at 25° C. for 30 minutes and then was tested; a microplate reader was used to record the chemiluminescence value, the curve was fitted with Origin 7.5, the IC50 (nM) value of the test substance on the ALK2 kinase activity was calculated.

[2] = system: hepcidin in HepG2 cells; assay: Inhibition test of compounds on hepcidin expression in HepG2 cells (hepcidin ELISA); format: cell-based, human; conditions: 48 hours incubation, hepcidin protein in supernatant by ELISA, read-out: IC50 (nM) values of the inhibitory activities on hepcidin in HepG2 cells
Description: 2. Inhibition Test of Compounds on Hepcidin Expression in HepG2 Cells
HepG2 cells (ATCC HB-8065) in the exponential growth phase were digested with trypsin-EDTA, inoculated into 96-well plates at 5000 cells/well, and cultured in MEM (10% FBS) medium at 37° C. under 5% CO2 conditions for 24 hours, the test compound dissolved in DMSO and diluted in the medium and at a gradient concentration was added to each culture well. The preparation method of the test compound is: a compound mother liquor at a concentration of 10 mM was prepared, and then the compound was diluted in a gradient. The highest concentration of the compound for test was 10 μM, and a total of 8 gradients were obtained by 5-fold dilution. The diluted compound was added to a 96-well plate covered with cells, 50 μL per well. After the compound was added, the plate was placed in an incubator stored at 37° C. and 5% CO2, and incubated for another 48 hours. After the incubation was completed, the 96-well plate was centrifuged at 1000 rpm for 5 minutes at room temperature, the supernatant was taken, ELISA sample loading and detecting were completed within 30 minutes. Hepcidin ELISA kit (Human Hepcidin Quantikine ELISA Kit, R&D systems, Cat #DHP250) was used to quantitatively detect hepcidin protein. […] After washing and color development, the absorbance value was determined with a microplate reader at 450 nm, and the concentration of hepcidin protein in the test sample was calculated according to the quasi-curve of human hepcidin protein determination, and the curve was fitted with Origin 7.5 software, the IC50 (nM) value on the inhibition of producing hepcidin preotein of HepG2 cells by the test compound was calculated.

Structure (SMILES): COc1cc(Nc2ncc(OC)c(Nc3cccnc3-c3ccccn3)n2)ccc1C1CCOCC1 [Compound 4, N^4-(2,2′-bipyridin-3-yl)-5-methoxy-N^2-(3-methoxy-4-(tetrahydro-2H-pyran-4-yl)phenyl)pyrimidine-2,4-diamine]
IC50 [1]: 150 to 500 nM

Structure (SMILES): COc1cc(Nc2nccc(Nc3cccnc3-c3ccccn3)n2)cc(OC)c1OC [Compound I*, reference compound]
IC50 [1]: ≥ 500 nM | IC50 [2]: 532 nM

The next lines start with the values.

IC50 [1]: 150 to 500 nM
Structure (SMILES): COc1cc(Nc2nccc(Nc3cccnc3-c3ccccn3)n2)ccc1C1CCOCC1 [Compound 1, N^4-(2,2′-bipyridin-3-yl)-N^2-(3-methoxy-4-(tetrahydro-2H-pyran-4-yl)phenyl)pyrimidine-2,4-diamine]

IC50 [1]: ≤ 150 nM | IC50 ([2]; Homo sapiens): 14 nM
Structure (SMILES): COc1cc(Nc2nccc(Nc3cccnc3-c3ccccn3)n2)ccc1C1CCN(C)CC1 [Compound 2, N^4-(2,2′-bipyridin-3-yl)-N^2-3-(methoxy-4-(1-methylpiperidin-4-yl)phenyl)pyrimidine-2,4-diamine]

IC50 [1]: ≤ 150 nM | IC50 ([2]; Homo sapiens): 30 nM
Structure (SMILES): COc1cc(Nc2nccc(Nc3ccc(C)nc3-c3ccccn3)n2)ccc1C1CCN(C)CC1 [Compound 5, N^2-(3-methoxy-4-(1-methylpiperidin-4-yl)phenyl)-N^4-(6-methyl-2,2′-bipyridin-3-yl)pyrimidine-2,4-diamine]
